This experiment has as its target hNR2B (Homo sapiens, UniProt Q05586+Q13224). The experiment in a line: Electrophysiology NMDA receptor experiments: two electrode voltage-clamp in Xenopus laevis oocytes expressing GluN1/GluN2 subunits. The class given is cell-based. As to conditions: oocytes voltage clamped at −40 mV, 50 μM glutamate, 30 μM glycine. As to the method:
Electrophysiology NMDA Receptor Experiments.
Stage V and VI oocytes were surgically removed from the ovaries of large, well-fed and healthy Xenopus laevis anesthetized with 3-amino-benzoic acid ethyl ester (3 gm/l). Clusters of isolated oocytes were incubated with 292 U/ml Worthington (Freehold, N.J.) type IV collagenase or 1.3 mg/ml collagenase (Life Technologies, Gaithersburg, Md.; 17018-029) for 2 hr in Ca^2+-free solution comprised of (in mM) 115 NaCl, 2.5 KCl, and 10 HEPES, pH 7.5, with slow agitation to remove the follicular cell layer. Oocytes were then washed in the same solution supplemented with 1.8 mM CaCl2 and maintained in Barth's solution comprised of (in mM): 88 NaCl, 1 KCl, 2.4 NaHCO3, 10 HEPES, 0.82 MgSO4, 0.33 Ca(NO3)2, and 0.91 CaCl2 and supplemented with 100 μg/ml gentamycin, 10 μg/ml streptomycin, and 10 μg/ml penicillin. Oocytes were manually defolliculated and injected within 24 hrs of isolation with 3-5 ng of human GluN1 subunit cRNA and 7-10 ng of human GluN2 cRNA subunit in a 50 nl volume, and incubated in Barth's solution at 18° C. for 2-7 d. Glass injection pipettes had tip sizes ranging from 10-20 microns, and were backfilled with mineral oil. cRNA was synthesized from linearized template cDNA for rat glutamate receptor subunits according to manufacturer specifications (Ambion).
Two electrode voltage-clamp recordings were made 2-7 days post-injection. Oocytes were placed in a dual-track plexiglass recording chamber with a single perfusion line that splits in a Y-configuration to perfuse two oocytes. Dual recordings were made at room temperature (23° C.) using two Warner OC725B two-electrode voltage clamp amplifiers, arranged as recommended by the manufacturer. Glass microelectrodes (1-10 Megaohms) were filled with 300 mM KCl (voltage electrode) or 3 M KCl (current electrode). The bath clamps communicated across silver chloride wires placed into each side of the recording chamber, both of which were assumed to be at a reference potential of 0 mV. Oocytes were perfused with a solution comprised of (in mM) 90 NaCl, 1 KCl, 10 HEPES, […] and 0.5 BaCl2; pH 7.4, adjusted by addition of NaOH. Oocytes were recorded under voltage clamp at −40 mV. Final concentrations for glutamate and glycine were 50 μM and 30 μM, respectively. Concentration-response curves for experimental compounds were obtained by applying in successive fashion maximal glutamate/glycine, followed by glutamate/glycine plus variable concentrations of experimental compounds. Dose response curves consisting of four to eight concentrations were obtained in this manner. The baseline leak current at −40 mV was measured before and after recording, and the full recording linearly corrected for any change in leak current. The level of inhibition by applied experimental compounds was expressed as a percent of the initial glutamate response, and averaged together across oocytes from multiple experiments. Results were pooled, and the average percent responses at antagonist concentrations were fit by the equation, Percent Response=(100−minimum)/(1+([conc]/IC50)^nH)+minimum where minimum is the residual percent response in saturating concentration of the experimental compounds, IC50 is the concentration of antagonist that causes half of the achievable inhibition, and nH is a slope factor describing steepness of the inhibition curve. […]
For NMDA receptor subtype selectivity experiments human GluN1/GluN2A, GluN1/GluN2C, and GluN1/GluN2D cRNAs were expressed in Xenopus laevis as described above. Here, 10 μM concentrations of the antagonist was perfused with 50 μM glutamate and 30 μM glycine onto the oocyte for two min and the remaining current in the presence of the antagonist was compared to the maximal current obtained with 50 μM glutamate and 30 μM glycine alone (defined as 100%). When IC50 determinations were made against other NMDA receptor subtypes the protocol as described above was followed. […]
(In general: Two-electrode voltage clamp is typically applied to oocytes expressing channels or transporters.)

Counter-ions that a name gives are not always drawn. Like-named read-outs stand apart in the source and are kept apart here.

Chain of hNR2B (Q13224 27-1484, other chains not shown): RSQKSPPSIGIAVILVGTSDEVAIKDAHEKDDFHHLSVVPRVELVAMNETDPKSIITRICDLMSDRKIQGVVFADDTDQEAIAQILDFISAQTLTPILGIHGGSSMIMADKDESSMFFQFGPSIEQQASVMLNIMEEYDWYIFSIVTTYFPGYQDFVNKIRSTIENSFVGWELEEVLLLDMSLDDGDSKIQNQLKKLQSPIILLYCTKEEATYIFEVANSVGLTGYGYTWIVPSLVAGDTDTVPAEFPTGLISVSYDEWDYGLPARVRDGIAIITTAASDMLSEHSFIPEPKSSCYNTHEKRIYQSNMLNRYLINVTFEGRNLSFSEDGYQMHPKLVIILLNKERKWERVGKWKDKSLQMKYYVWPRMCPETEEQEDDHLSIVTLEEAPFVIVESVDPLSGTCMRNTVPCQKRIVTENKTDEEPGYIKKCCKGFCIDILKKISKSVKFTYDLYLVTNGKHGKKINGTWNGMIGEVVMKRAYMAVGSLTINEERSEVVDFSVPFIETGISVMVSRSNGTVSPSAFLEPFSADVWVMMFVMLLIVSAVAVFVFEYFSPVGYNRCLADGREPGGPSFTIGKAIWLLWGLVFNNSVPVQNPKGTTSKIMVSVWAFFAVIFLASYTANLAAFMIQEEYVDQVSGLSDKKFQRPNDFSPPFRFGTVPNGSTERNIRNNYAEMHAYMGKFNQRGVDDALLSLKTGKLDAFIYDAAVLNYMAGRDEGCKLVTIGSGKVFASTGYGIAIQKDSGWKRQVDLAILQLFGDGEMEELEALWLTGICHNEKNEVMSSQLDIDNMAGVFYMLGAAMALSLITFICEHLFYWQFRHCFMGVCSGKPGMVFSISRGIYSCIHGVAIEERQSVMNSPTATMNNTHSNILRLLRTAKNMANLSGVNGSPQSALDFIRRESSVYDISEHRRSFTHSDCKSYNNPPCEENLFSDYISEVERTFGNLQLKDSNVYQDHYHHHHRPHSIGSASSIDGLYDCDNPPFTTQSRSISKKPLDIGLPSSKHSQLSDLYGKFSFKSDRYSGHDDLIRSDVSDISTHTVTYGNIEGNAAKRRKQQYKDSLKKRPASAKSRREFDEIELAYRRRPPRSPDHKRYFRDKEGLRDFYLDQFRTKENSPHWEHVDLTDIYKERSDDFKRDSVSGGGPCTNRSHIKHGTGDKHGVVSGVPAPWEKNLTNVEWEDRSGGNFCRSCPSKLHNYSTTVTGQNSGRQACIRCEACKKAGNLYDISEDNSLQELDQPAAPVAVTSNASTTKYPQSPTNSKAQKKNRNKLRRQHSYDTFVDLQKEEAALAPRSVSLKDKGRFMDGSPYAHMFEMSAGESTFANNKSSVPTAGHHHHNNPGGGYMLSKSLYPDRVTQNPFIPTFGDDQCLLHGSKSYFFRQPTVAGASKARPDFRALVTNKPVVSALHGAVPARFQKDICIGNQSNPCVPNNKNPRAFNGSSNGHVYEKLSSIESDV

As usually defined, the IC50 is the concentration that inhibits the measured activity by half. Regarding `Cc1nc(Nc2ccc(Cl)cc2)ncc1COc1ccc2[nH]c(=O)ccc2c1` [Example 51], the IC50 (read-out: Rating (hNR2B IC50)) is < 0.2 µM.
The same measure, in the same setting: next, `Cc1nc(Nc2ccc(OC(F)F)cc2)ncc1COc1ccc2[nH]c(=O)ccc2c1` [Example 52]: < 0.2 µM.
The same measure, in the same setting: with `O=c1ccc2cc(OCc3cnc(Nc4ccc(OC(F)F)cc4)nc3C(F)(F)F)ccc2[nH]1` [Example 53] the figure was < 0.2 µM; with `O=c1ccc2cc(OCc3cnc(Nc4ccc(Cl)cc4)nc3C(F)(F)F)ccc2[nH]1` [Example 54], < 0.2 µM.
Still for that read-out and setting: with `CN(C)c1nc(Nc2ccc(OC(F)F)cc2)ncc1COc1ccc2[nH]c(=O)ccc2c1` [Example 55] the figure was < 0.2 µM; with `FC(F)(F)Oc1ccc(Nc2ncc(COc3ccc4[nH]ncc4c3)cn2)cc1` [Example 56], < 0.2 µM.
With `FC(F)Oc1ccc(Nc2ncc(COc3ccc4[nH]ncc4c3)cn2)cc1` [Example 57], the 50% inhibitory concentration (IC50) (read-out: Rating (hNR2B IC50)) was < 0.2 µM.
Same read-out and setting: next, `O=C1Nc2ccc(OCc3cnc(Nc4ccc(OC(F)F)cc4)nc3)cc2CO1` [Example 58]: < 0.2 µM; `Oc1ccc(OCc2cnc(Nc3ccc(OC(F)F)cc3)nc2)nn1` [Example 59]: < 0.2 µM; `FC(F)Oc1ccc(Nc2ncc(COc3ccc4[nH]cnc4c3)cn2)cc1` [Example 60]: < 0.2 µM.
On the same count and under the same terms, with `O=C1Nc2ccc(OCc3cnc(Nc4ccc(OC(F)(F)F)cc4)nc3)cc2CO1` [Example 61] the figure was < 0.2 µM; with `FC(F)Oc1ccc(Nc2ncc(COc3cn[nH]c3)cn2)cc1` [Example 63], < 0.2 µM; with `FC(F)(F)Oc1ccc(Nc2ncc(COc3ccc4[nH]ncc4c3Cl)cn2)cc1` [Example 64], < 0.2 µM.
`Nc1nc2ccc(OCc3cnc(Nc4ccc(OC(F)F)cc4)nc3)cc2s1` [Example 65]: for the setting “read-out: Rating (hNR2B IC50)”, the IC50 is < 0.2 µM.
Turning to `FC(F)Oc1ccc(Nc2ncc(COc3ccc4[nH]ncc4c3Cl)cn2)cc1` [Example 66], the IC50 (read-out: Rating (hNR2B IC50)) was < 0.2 µM.
Still for that read-out and setting: with `Cc1cc(OCc2cnc(Nc3ccc(OC(F)(F)F)cc3)nc2)cc2cn[nH]c12` [Example 67] the figure was < 0.2 µM; with `FC(F)(F)Oc1ccc(Nc2ncc(COc3ccc4[nH]nnc4c3)cn2)cc1` [Example 68], < 0.2 µM.
On the same count and under the same terms, with `FC(F)Oc1ccc(Nc2ncc(COc3ccc4[nH]nnc4c3)cn2)cc1` [Example 69] the figure was < 0.2 µM.
With `Oc1ncc(OCc2cnc(Nc3ccc(OC(F)F)cc3)nc2)cn1` [Example 70], under “read-out: Rating (hNR2B IC50)”, the IC50 is < 0.2 µM.
Regarding `O=c1[nH]c2ccc(OCc3cnc(Nc4ccc(OC(F)(F)F)cc4)nc3)cc2s1` [Example 71], the IC50 (read-out: Rating (hNR2B IC50)) is < 0.2 µM.
Still for that read-out and setting: next, `Fc1cc(Nc2ncc(COc3ccc4[nH]ncc4c3Cl)cn2)ccc1OC(F)F` [Example 72]: < 0.2 µM; `Cc1cc(Nc2ncc(COc3ccc4[nH]ncc4c3Cl)cn2)ccc1OC(F)F` [Example 73]: < 0.2 µM.
Same read-out and setting: with `FC(F)Oc1ccc(Nc2ncc(COc3ccc4[nH]ncc4c3)cn2)cc1Cl` [Example 75] the figure was < 0.2 µM.
Still for that read-out and setting: with `Cc1cc(Nc2ncc(COc3ccc4[nH]ncc4c3)cn2)ccc1OC(F)F` [Example 76] the figure was < 0.2 µM.
For the compound `O=C1Nc2ccc(OCc3cnc(Nc4ccc(OC(F)F)c(Cl)c4)nc3)cc2CO1` [Example 77], the half-inhibitory concentration (IC50) (read-out: Rating (hNR2B IC50)) was < 0.2 µM.
The same measure, in the same setting: next, `Cc1cc(Nc2ncc(COc3cc4ccc(=O)[nH]c4cc3F)cn2)ccc1OC(F)F` [Example 78]: < 0.2 µM.
Still for that read-out and setting: next, `FC(F)Oc1ccc(Nc2ncc(COc3cnc4[nH]ncc4c3)cn2)cc1` [Example 79]: < 0.2 µM; `O=c1[nH]c2ccc(OCc3cnc(Nc4ccc(OC(F)(F)F)cc4)nc3)cc2o1` [Example 80]: < 0.2 µM; `Cc1cc(Nc2ncc(COc3ccc4c(c3)COC(=O)N4)cn2)ccc1OC(F)F` [Example 82]: < 0.2 µM.
For `Cc1ccc(Nc2ncc(COc3ccc4c(c3)COC(=O)N4)cn2)cc1F` [Example 83], the IC50 (read-out: Rating (hNR2B IC50)) was < 0.2 µM.
Still for that read-out and setting: next, `O=C1Nc2ccc(OCc3cnc(Nc4ccc(OC(F)F)c(F)c4)nc3)cc2CO1` [Example 84]: < 0.2 µM.
Same read-out and setting: with `O=C1Cc2cc(OCc3cnc(Nc4ccc(OC(F)F)c(F)c4)nc3)ccc2N1` [Example 85] the figure was < 0.2 µM; with `Cc1cc(Nc2ncc(COc3ccc4c(c3)CC(=O)N4)cn2)ccc1OC(F)F` [Example 86], < 0.2 µM.
For `Cc1cc(Nc2ncc(COc3ccc(Nc4nccs4)cc3)cn2)ccc1OC(F)F` [Example 87], the IC50 (read-out: Rating (hNR2B IC50)) was < 0.2 µM.
On the same count and under the same terms, with `O=c1ccc2cc(OCc3cnc(Nc4ccc(OC(F)F)c(Cl)c4)nc3)c(F)cc2[nH]1` [Example 88] the figure was < 0.2 µM; with `FC(F)Oc1ccc(Nc2ncc(COc3cnc4[nH]ccc4c3)cn2)cc1Cl` [Example 90], < 0.2 µM; with `Fc1cc(Nc2ncc(COc3ccc(Nc4nccs4)cc3)cn2)ccc1OC(F)F` [Example 91], < 0.2 µM.
`FC(F)Oc1ccc(Nc2ncc(COc3ccc(Nc4nccs4)cc3)cn2)cc1Cl` [Example 92]: the IC50 (read-out: Rating (hNR2B IC50)) is < 0.2 µM.
Turning to `O=c1ccc2cc(OCc3ccnc(Nc4ccc(Cl)cc4)n3)ccc2[nH]1` [Example 93, 6-((2-(4-chlorophenylamino)pyrimidin-4-yl)methoxy)quinolin-2(1H)-one], the IC50 (read-out: hNR2B IC50) was determined as 1.25 µM.
Consider `O=c1ccc2cc(OCc3ccnc(NCc4ccc(Cl)cc4)n3)ccc2[nH]1` [Example 94], for which, where the note is “read-out: Rating (hNR2B IC50)”, the IC50 lay within 1 to 10 µM.
As to `O=c1ccc2cc(OCc3cc(Nc4ccc(Cl)c(Cl)c4)ncn3)ccc2[nH]1` [Example 95, 6-((6-(3,4-dichlorophenylamino)pyrimidin-4-yl)methoxy)quinolin-2(1H)-one trifluoroacetate], the IC50 (read-out: hNR2B IC50) amounted to 0.036 µM.
Take `O=c1ccc2cc(OCc3cc(Nc4ccc(Cl)cc4)ncn3)ccc2[nH]1` [Example 96]: the half-inhibitory concentration (IC50) (read-out: Rating (hNR2B IC50)) was < 0.2 µM.
In the case of `O=c1ccc2cc(OCc3cc(NCc4ccc(Cl)c(Cl)c4)ncn3)ccc2[nH]1` [Example 97], where the note is “read-out: Rating (hNR2B IC50)”, the IC50 was in the range of 1 to 10 µM.
For `O=c1ccc2cc(OCc3cnc(Nc4ccc(Cl)c(Cl)c4)cn3)ccc2[nH]1` [Example 98, 6-((5-(3,4-dichlorophenylamino)pyrazin-2-yl)methoxy)quinolin-2(1H)-one], for the setting “read-out: hNR2B IC50”, the IC50 was > 3 µM.
In the case of `O=c1ccc2cc(OCc3cncc(Nc4ccc(Cl)cc4)n3)ccc2[nH]1` [Example 99], the IC50 (read-out: Rating (hNR2B IC50)) was 1 to 10 µM.
Same read-out and setting: next, `O=c1ccc2cc(OCc3cncc(NCc4ccc(Cl)cc4)n3)ccc2[nH]1` [Example 100]: 0.201 to 1 µM.
On the same count and under the same terms, with `O=c1ccc2cc(OCc3cncc(NCc4ccc(Cl)c(Cl)c4)n3)ccc2[nH]1` [Example 101] the figure was 1 to 10 µM.
With `O=c1ccc2cc(Oc3ccc(NCc4ccc(OC(F)(F)F)cc4)nn3)ccc2[nH]1` [Example 102, 6-(6-(4-(trifluoromethoxy)benzylamino)pyridazin-3-yloxy)quinolin-2(1H)-one], the IC50 (read-out: hNR2B IC50) was 4.6 µM.
Regarding `FC(F)Oc1ccc(Nc2ncc(CCc3ccc4[nH]ncc4c3)cn2)cc1Cl` [Example 104, 5-(2-(1H-indazol-5-yl)ethyl)-N-(3-chloro-4-(difluoromethoxy)phenyl)pyrimidin-2-amine], the IC50 (read-out: hNR2B IC50) stood at 0.183 µM.
On to `O=c1ccc2cc(CCc3cnc(Nc4ccc(OC(F)F)c(Cl)c4)nc3)ccc2[nH]1` [Example 105, 6-(2-(2-(3-chloro-4-(difluoromethoxy)phenylamino)pyrimidin-5-yl)ethyl)quinolin-2(1H)-one], for which the IC50 (read-out: hNR2B IC50) is 0.0025 µM.
Regarding `Oc1ccc(CCc2cnc(Nc3ccc(OC(F)F)cc3)nc2)cc1` [Example 107, 4-(2-(2-((4-(difluoromethoxy)phenyl)amino)pyrimidin-5-yl)ethyl)phenol], the half-inhibitory concentration (IC50) (read-out: hNR2B IC50) is 0.035 µM.
